From the NIST ThermoML archive (doi:10.1021/je900641w) come the findings set out here.

The conditions of this data set: 1000 kPa, Liquid, Coaxial cylinder method.

Numbers after ± are expanded uncertainties.

For `COCCOC` [1,2-dimethoxyethane], the thermal conductivity was found to be 0.1605 ± 0.0071 W/m/K (302.75 K), 0.1452 ± 0.0064 W/m/K (332.54 K), 0.1317 ± 0.0059 W/m/K (362.39 K) and 0.1183 ± 0.0053 W/m/K (392.16 K).

Regarding `COCCOCCOCCOCCOC` [2,5,8,11,14-pentaoxapentadecane], the thermal conductivity came to 0.1469 ± 0.0065 W/m/K (302.75 K), 0.1407 ± 0.0063 W/m/K (332.54 K), 0.1345 ± 0.006 W/m/K (362.39 K) and 0.1274 ± 0.0057 W/m/K (392.16 K).

Take `COCCOCCOCCOC` [2,5,8,11-tetraoxadodecane]: the thermal conductivity runs as follows: (302.75 K) 0.1433 ± 0.0064 W/m/K; (332.54 K) 0.137 ± 0.0061 W/m/K; (362.39 K) 0.1303 ± 0.0058 W/m/K; (392.16 K) 0.1227 ± 0.0055 W/m/K.

As to `COCCOCCOC` [2,5,8-trioxanonane], the thermal conductivity runs as follows: (302.75 K) 0.1461 ± 0.0065 W/m/K; (332.54 K) 0.1324 ± 0.0059 W/m/K; (362.39 K) 0.1205 ± 0.0054 W/m/K; (392.16 K) 0.1076 ± 0.0048 W/m/K.

For `COCC(C)OCC(C)OC` (centres undefined) [2-methoxy-1-(2-methoxy-1-methylethoxy)propane], the thermal conductivity (302.75 K) is listed as 0.1242 ± 0.0056 W/m/K, the thermal conductivity (332.54 K) worked out at 0.1169 ± 0.0052 W/m/K, the thermal conductivity (362.39 K) worked out at 0.1085 ± 0.0049 W/m/K and the thermal conductivity (392.16 K) was 0.099 ± 0.0045 W/m/K.

Take `c1ccccc1` [benzene]: the thermal conductivity (302.75 K) is 0.1409 ± 0.0037 W/m/K, the thermal conductivity (332.54 K) was found to be 0.1304 ± 0.0035 W/m/K, the thermal conductivity (362.39 K) worked out at 0.1194 ± 0.0032 W/m/K and the thermal conductivity (392.16 K) stood at 0.1098 ± 0.003 W/m/K.
